According to US11034672B1, “Tyrosine kinase inhibitor compositions, methods of making and methods of use” (Black Diamond Therapeutics, Inc., priority 2018, dated 2021):

Columns and labels:
Format in all cases: cell-based
EGFR WT [1] = molecular target: T1, EGFR WT (Homo sapiens, UniProt P00533); test: BaF3 cell proliferation assay, EGFR WT (Table A); conditions: potency code, 3 days, CellTiterGlo, read-out: EGFR WT (Activity for Inhibiting EGFR)
Description: (§1) Retroviral Production: EGFR mutants were subcloned into pMXs-IRES-Blasticidin (RTV-016, Cell Biolabs, San Diego, Calif.). Retroviral expression vector retrovirus was produced by transient transfection of HEK 293T cells with the retroviral EGFR mutant expression vector pMXs-IRES-Blasticidin (RTV-016, Cell Biolabs), pCMV-Gag-Pol vector and pCMV-VSV-G-Envelope vector. Briefly, HEK 293T/17 cells were plated in 100 mm collagen coated plate (354450, Corning Life Sciences, Tewksbury, Mass.) (4×10^5 per plate) and incubated overnight. The next day, retroviral plasmids (3 μg of EGFR mutant, 1.0 μg of pCMV-Gag-Pol and 0.5 μg pCMV-VSV-G) were mixed in 500 μl of Optimem (31985, Life Technologies). The mixture was incubated at room temperature for 5 min and then added to Optimem containing transfection reagent Lipofectamine (11668, Invitrogen) and incubated for 20 minutes. Mixture was then added dropwise to HEK 293T cells. The next day the medium was replaced with fresh culture medium and retrovirus was harvested @ 24 and 48 hrs.
(§2) Generation of EGFR mutant stable cell lines: BaF3 cells (1.5E5 cells) were infected with 1 ml of viral supernatant supplemented with 8 μg/ml polybrene by centrifuging for 30 min at 1000 rpm. Cells were placed in a 37° C. incubator overnight. Cells were then spun for 5 minutes to pellet the cells. Supernatant was removed and cells re-infected a fresh 1 ml of viral supernatant supplemented with 8 μg/ml polybrene by centrifuging for 30 min at 1000 rpm. Cells were placed in 37° C. incubator overnight. […] After 48 hours cells were selected for retroviral infection in 10 μg/ml Blasticidin for one week. Blasticidin resistant populations were washed twice in phosphate buffered saline before plating in media lacking IL-3 to select for IL-3 independent growth.
(§3) EC50 values were determined with the same application.

EGFR V3 [2] = molecular target: T2, EGFR V3 (Homo sapiens, UniProt P00533, DELINS30-297G); test: BaF3 cell proliferation assay, EGFR V3 (Table A); conditions: potency code, 3 days, CellTiterGlo, read-out: EGFR V3 (Activity for Inhibiting EGFR)
T2 construct: expressed in transfected cells; host or cells: BaF3 (murine pro-B), retroviral pMXs-IRES-Blasticidin
T2 sequence (P00533 with tags, fused parts or gaps DELINS30-297G): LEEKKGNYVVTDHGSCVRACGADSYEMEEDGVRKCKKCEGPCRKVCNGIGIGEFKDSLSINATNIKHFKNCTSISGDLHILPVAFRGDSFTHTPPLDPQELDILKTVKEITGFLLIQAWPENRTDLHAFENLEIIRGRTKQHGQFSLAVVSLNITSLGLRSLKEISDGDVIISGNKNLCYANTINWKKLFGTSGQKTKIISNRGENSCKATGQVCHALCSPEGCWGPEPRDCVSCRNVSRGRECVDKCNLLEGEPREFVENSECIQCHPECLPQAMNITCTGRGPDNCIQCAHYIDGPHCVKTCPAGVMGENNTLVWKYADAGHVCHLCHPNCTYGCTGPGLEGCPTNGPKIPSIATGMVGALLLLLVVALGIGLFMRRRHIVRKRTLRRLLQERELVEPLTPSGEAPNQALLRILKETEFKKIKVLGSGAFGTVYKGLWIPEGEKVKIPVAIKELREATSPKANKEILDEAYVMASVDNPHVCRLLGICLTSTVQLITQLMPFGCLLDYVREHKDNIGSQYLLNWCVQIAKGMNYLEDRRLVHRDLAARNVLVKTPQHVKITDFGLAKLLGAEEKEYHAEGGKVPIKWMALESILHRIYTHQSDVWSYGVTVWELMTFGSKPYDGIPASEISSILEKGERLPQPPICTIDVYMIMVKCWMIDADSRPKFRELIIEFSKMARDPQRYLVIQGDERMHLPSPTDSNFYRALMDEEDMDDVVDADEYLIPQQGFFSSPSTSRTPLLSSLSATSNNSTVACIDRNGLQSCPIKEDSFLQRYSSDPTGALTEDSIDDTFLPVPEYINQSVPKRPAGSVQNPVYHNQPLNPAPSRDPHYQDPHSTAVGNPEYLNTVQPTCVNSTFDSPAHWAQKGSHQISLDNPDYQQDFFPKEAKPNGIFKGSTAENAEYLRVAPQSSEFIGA
Description: as §1, §2, §3

HER2 S310F [3] = molecular target: T3, HER2 S310F (Homo sapiens, UniProt P04626, S310F); test: Activity for inhibiting HER2 (Table B), HER2 S310F; conditions: read-out: HER2 S310F, potency code (IC50)
T3 construct: expressed in transfected cells; host or cells: BaF3 (murine pro-B)
T3 sequence (P04626 23-1255 S310F): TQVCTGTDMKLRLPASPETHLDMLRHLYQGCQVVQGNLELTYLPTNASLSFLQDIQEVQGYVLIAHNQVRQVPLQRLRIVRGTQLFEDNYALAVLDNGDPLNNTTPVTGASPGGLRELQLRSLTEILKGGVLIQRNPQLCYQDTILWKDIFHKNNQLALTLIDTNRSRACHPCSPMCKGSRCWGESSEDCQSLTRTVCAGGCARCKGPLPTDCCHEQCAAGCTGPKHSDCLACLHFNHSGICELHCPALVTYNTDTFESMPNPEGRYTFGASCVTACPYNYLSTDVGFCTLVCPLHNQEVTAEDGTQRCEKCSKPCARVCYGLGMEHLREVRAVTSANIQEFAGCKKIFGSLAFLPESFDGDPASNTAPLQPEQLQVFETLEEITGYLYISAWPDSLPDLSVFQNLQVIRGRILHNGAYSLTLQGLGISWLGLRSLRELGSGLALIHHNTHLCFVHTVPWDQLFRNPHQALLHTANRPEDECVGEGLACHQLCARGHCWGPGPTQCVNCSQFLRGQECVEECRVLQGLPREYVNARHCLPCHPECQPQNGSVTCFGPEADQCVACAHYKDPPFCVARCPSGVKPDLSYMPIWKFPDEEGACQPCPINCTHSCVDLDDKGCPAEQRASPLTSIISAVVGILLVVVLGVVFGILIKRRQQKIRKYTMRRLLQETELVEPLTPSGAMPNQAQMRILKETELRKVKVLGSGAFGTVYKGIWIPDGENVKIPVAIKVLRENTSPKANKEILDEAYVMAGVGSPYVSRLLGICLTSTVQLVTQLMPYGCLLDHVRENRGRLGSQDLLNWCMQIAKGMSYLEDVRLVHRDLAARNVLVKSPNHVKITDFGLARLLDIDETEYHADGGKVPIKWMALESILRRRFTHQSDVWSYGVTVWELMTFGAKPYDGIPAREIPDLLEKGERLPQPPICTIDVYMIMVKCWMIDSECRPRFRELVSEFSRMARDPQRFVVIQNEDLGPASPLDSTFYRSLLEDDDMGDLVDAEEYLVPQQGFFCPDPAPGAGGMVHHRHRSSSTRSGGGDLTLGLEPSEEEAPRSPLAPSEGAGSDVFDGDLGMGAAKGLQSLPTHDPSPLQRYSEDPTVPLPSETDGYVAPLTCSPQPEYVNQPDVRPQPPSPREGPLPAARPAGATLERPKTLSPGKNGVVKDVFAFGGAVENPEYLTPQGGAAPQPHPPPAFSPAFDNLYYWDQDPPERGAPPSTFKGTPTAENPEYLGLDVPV
Description: as §3

EGFR WT [4] = molecular target: T1, EGFR WT; test: Activity for inhibiting EGFR (Table A), EGFR WT; conditions: read-out: EGFR WT, potency code (IC50)
HER2 YVMA [5] = molecular target: T4, HER2 YVMA (Homo sapiens, UniProt P04626, INS775YVMA); test: Activity for inhibiting HER2 (Table B), HER2 YVMA; conditions: read-out: HER2 YVMA, potency code (IC50)
T4 construct: expressed in transfected cells; host or cells: BaF3 (murine pro-B)
T4 sequence (P04626 with tags, fused parts or gaps INS775YVMA): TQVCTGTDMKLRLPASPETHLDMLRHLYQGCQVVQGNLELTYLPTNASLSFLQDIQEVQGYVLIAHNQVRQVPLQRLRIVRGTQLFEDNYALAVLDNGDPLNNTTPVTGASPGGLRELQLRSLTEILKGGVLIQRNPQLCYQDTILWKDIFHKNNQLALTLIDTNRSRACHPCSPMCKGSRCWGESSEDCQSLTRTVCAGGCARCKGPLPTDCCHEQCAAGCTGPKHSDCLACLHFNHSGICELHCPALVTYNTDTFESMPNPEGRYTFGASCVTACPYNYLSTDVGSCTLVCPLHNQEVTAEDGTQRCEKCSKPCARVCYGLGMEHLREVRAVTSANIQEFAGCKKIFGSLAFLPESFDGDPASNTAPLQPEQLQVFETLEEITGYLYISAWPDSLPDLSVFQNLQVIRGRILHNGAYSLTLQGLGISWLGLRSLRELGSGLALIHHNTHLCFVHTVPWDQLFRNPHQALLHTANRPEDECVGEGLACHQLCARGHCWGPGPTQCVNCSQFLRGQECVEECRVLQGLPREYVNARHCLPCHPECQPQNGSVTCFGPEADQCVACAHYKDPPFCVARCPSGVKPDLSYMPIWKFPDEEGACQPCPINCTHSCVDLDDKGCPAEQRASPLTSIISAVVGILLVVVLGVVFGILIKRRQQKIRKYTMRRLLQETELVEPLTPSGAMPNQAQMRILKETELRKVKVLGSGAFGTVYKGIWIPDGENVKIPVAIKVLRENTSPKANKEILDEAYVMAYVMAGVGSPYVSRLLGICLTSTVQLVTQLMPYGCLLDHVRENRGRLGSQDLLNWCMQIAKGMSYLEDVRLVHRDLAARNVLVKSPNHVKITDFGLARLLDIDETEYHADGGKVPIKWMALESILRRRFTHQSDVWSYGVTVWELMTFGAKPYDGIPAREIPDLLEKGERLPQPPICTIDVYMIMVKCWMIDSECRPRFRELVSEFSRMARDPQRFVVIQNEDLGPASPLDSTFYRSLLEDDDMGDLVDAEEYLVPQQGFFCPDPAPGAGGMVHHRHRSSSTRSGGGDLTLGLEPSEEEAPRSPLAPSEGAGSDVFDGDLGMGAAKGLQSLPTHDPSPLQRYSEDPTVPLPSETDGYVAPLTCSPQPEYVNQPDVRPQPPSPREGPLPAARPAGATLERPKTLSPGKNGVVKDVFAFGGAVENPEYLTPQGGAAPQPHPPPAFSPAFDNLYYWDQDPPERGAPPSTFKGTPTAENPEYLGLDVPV
Description: as §3

HER2 YVMA [6] = molecular target: T4, HER2 YVMA; test: BaF3 cell proliferation assay, HER2 YVMA (Table B); conditions: potency code, 3 days, CellTiterGlo, read-out: HER2 YVMA (Activity for Inhibiting HER2)
HER2 S310F [7] = molecular target: T3, HER2 S310F; test: BaF3 cell proliferation assay, HER2 S310F (Table B); conditions: potency code, 3 days, CellTiterGlo, read-out: HER2 S310F (Activity for Inhibiting HER2)
EGFR V3 [8] = molecular target: T2, EGFR V3; test: Activity for inhibiting EGFR (Table A), EGFR V3 (EGFR-Viii); conditions: read-out: EGFR V3, potency code (IC50)

T1 sequence (P00533 25-1210 N540K): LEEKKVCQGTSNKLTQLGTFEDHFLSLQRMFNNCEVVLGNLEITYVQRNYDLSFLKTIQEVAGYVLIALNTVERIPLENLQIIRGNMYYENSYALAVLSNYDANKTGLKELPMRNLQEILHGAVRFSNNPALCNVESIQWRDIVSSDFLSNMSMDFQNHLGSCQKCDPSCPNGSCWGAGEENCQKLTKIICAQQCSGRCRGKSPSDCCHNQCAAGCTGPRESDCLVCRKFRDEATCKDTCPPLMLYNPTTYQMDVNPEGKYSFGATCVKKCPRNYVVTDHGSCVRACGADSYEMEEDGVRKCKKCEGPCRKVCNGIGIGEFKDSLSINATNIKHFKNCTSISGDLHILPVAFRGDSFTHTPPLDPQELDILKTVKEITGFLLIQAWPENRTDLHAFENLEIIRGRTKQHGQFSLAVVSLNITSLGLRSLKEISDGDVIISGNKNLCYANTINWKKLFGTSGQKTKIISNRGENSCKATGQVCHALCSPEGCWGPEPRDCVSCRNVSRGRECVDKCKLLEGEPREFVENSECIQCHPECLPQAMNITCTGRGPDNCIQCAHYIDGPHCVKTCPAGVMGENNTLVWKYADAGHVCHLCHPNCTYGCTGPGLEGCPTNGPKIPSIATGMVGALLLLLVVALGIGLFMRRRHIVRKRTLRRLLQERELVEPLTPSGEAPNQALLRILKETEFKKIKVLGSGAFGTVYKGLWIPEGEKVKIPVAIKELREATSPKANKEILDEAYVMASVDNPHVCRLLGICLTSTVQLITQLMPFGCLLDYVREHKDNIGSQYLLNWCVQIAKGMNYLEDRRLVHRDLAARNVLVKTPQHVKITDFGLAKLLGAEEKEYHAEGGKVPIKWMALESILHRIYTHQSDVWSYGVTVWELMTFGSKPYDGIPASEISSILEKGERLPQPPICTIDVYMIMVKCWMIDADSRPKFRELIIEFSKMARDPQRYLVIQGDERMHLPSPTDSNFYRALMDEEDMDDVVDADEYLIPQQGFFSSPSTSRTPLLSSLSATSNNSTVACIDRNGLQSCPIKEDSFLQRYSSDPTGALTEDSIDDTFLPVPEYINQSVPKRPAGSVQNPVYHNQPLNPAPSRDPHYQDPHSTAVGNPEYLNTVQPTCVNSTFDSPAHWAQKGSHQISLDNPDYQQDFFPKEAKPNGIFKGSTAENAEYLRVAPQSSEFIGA

| Structure (SMILES) | IC50 (EGFR WT [1]) [nM] | IC50 (EGFR V3 [2]) [nM] | IC50 (HER2 S310F [3]) [nM] | IC50 (EGFR WT [4]) [nM] | IC50 (HER2 YVMA [5]) [nM] | IC50 (HER2 YVMA [6]) [nM] | IC50 (HER2 S310F [7]) [nM] | IC50 (EGFR V3 [8]) [nM] |
| --- | --- | --- | --- | --- | --- | --- | --- | --- |
| CC#CC(=O)Nc1cc2c(Nc3ccc(OCc4ccccn4)c(Cl)c3)ncnc2cc1C#CC1[C@H]2CN(C)C[C@@H]12 (stereo partly drawn) [compound 107, N-(4-((3-chloro-4-(pyridin-2-ylmethoxy)phenyl)amino)-7-(((1R,5S,6s)-3-methyl-3-azabicyclo[3.1.0]hexan-6-yl)ethynyl)quinazolin-6-yl)but-2-ynamide] | 200 to 300 | 50 to 100 | 10 to 20 | 200 to 300 | 30 to 50 | 30 to 50 | 10 to 20 | 50 to 100 |
| CC#CC(=O)Nc1cc2c(Nc3ccc(Oc4ccccc4)cc3)ncnc2cc1C#C[C@@H]1[C@H]2CN(C)C[C@@H]12 [compound 108, N-(7-(((1R,5S,6s)-3-methyl-3-azabicyclo[3.1.0]hexan-6-yl)ethynyl)-4-((4-phenoxyphenyl)amino)quinazolin-6-yl)but-2-ynamide] | 500 to 1000 | 100 to 200 | 50 to 100 | 500 to 1000 | 500 to 1000 | 500 to 1000 | 50 to 100 | 100 to 200 |
| C=C(F)C(=O)Nc1cc2c(Nc3ccc(OCc4ccccn4)c(Cl)c3)ncnc2cc1OCCN1CCOCC1 [compound 109, N-(4-((3-chloro-4-(pyridin-2-ylmethoxy)phenyl)amino)-7-(2-morpholinoethoxy)quinazolin-6-yl)-2-fluoroacrylamide] | 30 to 50 | 10 to 20 | 10 to 20 | 30 to 50 | 50 to 100 | 50 to 100 | 10 to 20 | 10 to 20 |
| COC/C=C/C(=O)Nc1cc2c(Nc3ccc(OCc4ccccn4)c(Cl)c3)ncnc2cc1OCCN1CCOCC1 [compound 112, (E)-N-(4-((3-chloro-4-(pyridin-2-ylmethoxy)phenyl)amino)-7-(2-morpholinoethoxy)quinazolin-6-yl)-4-methoxybut-2-enamide] | 300 to 500 | 100 to 200 | 300 to 500 | 300 to 500 | > 1000 | > 1000 | 300 to 500 | 100 to 200 |
| C=CC(=O)Nc1cc2c(Nc3ccc(OCc4ccccn4)c(Cl)c3)ncnc2cc1C#C[C@@H]1[C@H]2CN(C3COC3)C[C@@H]12 [compound 113, N-(4-((3-chloro-4-(pyridin-2-ylmethoxy)phenyl)amino)-7-(((1R,5S,6s)-3-(oxetan-3-yl)-3-azabicyclo[3.1.0]hexan-6-yl)ethynyl)quinazolin-6-yl)acrylamide] | 500 to 1000 | 50 to 100 | 30 to 50 | 500 to 1000 | 100 to 200 | 100 to 200 | 30 to 50 | 50 to 100 |
| C=CC(=O)Nc1cc2c(Nc3ccc(Oc4ccccc4)c(C)c3)ncnc2cc1C#C[C@@H]1[C@H]2CN(C)C[C@@H]12 [compound 117, N-(7-(((1R,5S,6s)-3-methyl-3-azabicyclo[3.1.0]hexan-6-yl)ethynyl)-4-((3-methyl-4-phenoxyphenyl)amino)quinazolin-6-yl)acrylamide] | 500 to 1000 | 100 to 200 | 50 to 100 | 500 to 1000 | 100 to 200 | 100 to 200 | 50 to 100 | 100 to 200 |
| C=CC(=O)Nc1cc2c(Nc3ccc(OCc4ccccn4)c(Cl)c3)ncnc2cc1OCCC1COCCN1C (stereo not drawn) [compound 120, N-(4-((3-chloro-4-(pyridin-2-ylmethoxy)phenyl)amino)-7-(2-(4-methylmorpholin-3-yl)ethoxy)quinazolin-6-yl)acrylamide] | > 1000 | 30 to 50 | 10 to 20 | > 1000 | 50 to 100 | 50 to 100 | 10 to 20 | 30 to 50 |
| C=CC(=O)Nc1cc2c(Nc3ccc(CC(=O)c4ccccn4)c(Cl)c3)ncnc2cc1O[C@@H]1CCN(C)C1 [compound 121] | > 1000 | 100 to 200 | 30 to 50 | > 1000 | 300 to 500 | 300 to 500 | 30 to 50 | 100 to 200 |

Further lines, results first:

| IC50 (EGFR WT [1]) [nM] | IC50 (EGFR V3 [2]) [nM] | IC50 (HER2 S310F [3]) [nM] | IC50 (EGFR WT [4]) [nM] | IC50 (HER2 YVMA [5]) [nM] | IC50 (HER2 YVMA [6]) [nM] | IC50 (HER2 S310F [7]) [nM] | IC50 (EGFR V3 [8]) [nM] | Structure (SMILES) |
| --- | --- | --- | --- | --- | --- | --- | --- | --- |
| 200 to 300 | 20 to 30 | 30 to 50 | 200 to 300 | 200 to 300 | 200 to 300 | 30 to 50 | 20 to 30 | C=CC(=O)Nc1cc2c(Nc3ccc(OCc4ccccn4)c(Cl)c3)ncnc2cc1OC1CCN(C)CC1 [compound 110, N-(4-((3-chloro-4-(pyridin-2-ylmethoxy)phenyl)amino)-7-((1-methylpiperidin-4-yl)oxy)quinazolin-6-yl)acrylamide] |
| 300 to 500 | 30 to 50 | 30 to 50 | 300 to 500 | 100 to 200 | 100 to 200 | 30 to 50 | 30 to 50 | C=CC(=O)Nc1cc2c(Nc3ccc(OCc4ccccn4)c(Cl)c3)ncnc2cc1OCCN1CCC(O)CC1 [compound 111, N-(4-((3-chloro-4-(pyridin-2-ylmethoxy)phenyl)amino)-7-(2-(4-hydroxypiperidin-1-yl)ethoxy)quinazolin-6-yl)acrylamide] |
| 300 to 500 | 30 to 50 | 30 to 50 | 300 to 500 | 100 to 200 | 100 to 200 | 30 to 50 | 30 to 50 | C=CC(=O)Nc1cc2c(Nc3ccc(OCc4ccccn4)c(Cl)c3)ncnc2cc1OCCN1CCC(OC)CC1 [compound 114, N-(4-((3-chloro-4-(pyridin-2-ylmethoxy)phenyl)amino)-7-(2-(4-methoxypiperidin-1-yl)ethoxy)quinazolin-6-yl)acrylamide] |
| 200 to 300 | 30 to 50 | 30 to 50 | 200 to 300 | 50 to 100 | 50 to 100 | 30 to 50 | 30 to 50 | C=CC(=O)Nc1cc2c(Nc3ccc(OCc4ccccn4)c(Cl)c3)ncnc2cc1OCCN1CC2(CCN2C)C1 [compound 115] |
| 500 to 1000 | 30 to 50 | 30 to 50 | 500 to 1000 | 200 to 300 | 200 to 300 | 30 to 50 | 30 to 50 | C=CC(=O)Nc1cc2c(Nc3ccc(OCc4ccccn4)c(Cl)c3)ncnc2cc1OCC1CCN1C (stereo not drawn) [compound 116, N-(4-((3-chloro-4-(pyridin-2-ylmethoxy)phenyl)amino)-7-((1-methylazetidin-2-yl)methoxy)quinazolin-6-yl)acrylamide] |
| 300 to 500 | 50 to 100 | 50 to 100 | 300 to 500 | 100 to 200 | 100 to 200 | 50 to 100 | 50 to 100 | C=CC(=O)Nc1cc2c(Nc3ccc(OCc4ccccn4)c(Cl)c3)ncnc2cc1OCCN1CC2(CN(C)C2)C1 [compound 119, N-(4-((3-chloro-4-(pyridin-2-ylmethoxy)phenyl)amino)-7-(2-(6-methyl-2,6-diazaspiro[3.3]heptan-2-yl)ethoxy)quinazolin-6-yl)acrylamide] |
| 500 to 1000 | 50 to 100 | 100 to 200 | 500 to 1000 | 500 to 1000 | 500 to 1000 | 100 to 200 | 50 to 100 | C=CC(=O)Nc1cc2c(Nc3ccc(OCc4ccccn4)c(Cl)c3)ncnc2cc1OCC12CCC(CC1)N2C [compound 122, N-(4-((3-chloro-4-(pyridin-2-ylmethoxy)phenyl)amino)-7-((7-methyl-7-azabicyclo[2.2.1]heptan-1-yl)methoxy)quinazolin-6-yl)acrylamide] |
